The text below walks through data of PubChem BioAssay AID489027 (Sanford-Burnham Center for Chemical Genomics, 2010).

The target of the experiment is UPR counterscreen luciferase reporter, luminescence. Nature of the experiment: activators in UPR counterscreen luciferase reporter, dose response, counter-screen for adaptive UPR activator project, cell-based, luminescence (AID 489027).

`CCOc1cccc(C(=O)Nc2cccc(-c3nnc(-c4ccc(C)cc4)o3)c2)c1`: the EC50 is 12.1 µM. In the case of `O=C(COc1ccc(/C=N/NC(=O)c2cc3ccccc3o2)cc1Br)Nc1ccccc1` it was 3.69 µM.
